The text below walks through data of PubChem BioAssay (NCI).

SMILES strings stand for the structures.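 In this assay, cells in 96-well plates receive the compound at five concentrations for 48 hours. Endpoints are linearly interpolated between the surrounding concentrations. TGI denotes the concentration required for complete inhibition of growth.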

Some test systems named below: HOP-18 NSCLC; DMS 114 small cell lung; LXFL 529 NSCLC; KM20L2 colon; XF 498 CNS; RXF-631 renal.
Holding throughout (assay): growth of human tumour cells (NCI), 48 h

Regarding `N=C1c2ccccc2C(=O)c2c(NCCNCCO)ccc(O)c21`, the TGI was 54.8 µM in the assay with HOP-18 NSCLC, 15.1 µM with DMS 114 small cell lung, 27.8 µM in the assay with LXFL 529 NSCLC and 22 µM in the assay with KM20L2 colon.

For the compound `COC(=O)CC(C(C(=O)OCc1ccccc1)C(C)O)N1C(=O)OCC1c1ccccc1` (centres undefined), the TGI with DMS 114 small cell lung, in the assay on LXFL 529 NSCLC, with KM20L2 colon and in the assay with XF 498 CNS was greater than 100 µM each time.

With `CC1=C(O)C(=O)C2C(=O)C1C(C)C2c1ccccc1` (centres undefined), the TGI with LXFL 529 NSCLC and with XF 498 CNS was greater than 100 µM throughout.

With `O=C([O-])c1ccccc1Nc1ccccc1C(=O)[O-].[OH3+].[Zn+2]`, the TGI in the assay on HOP-18 NSCLC was greater than 75.9 µM; in the assay on DMS 114 small cell lung it was 37.4 µM; with LXFL 529 NSCLC, 44.7 µM; in the assay with KM20L2 colon, greater than 100 µM; in the assay on XF 498 CNS, 57.3 µM.

Regarding `[N-]=[N+]=C1C(=O)C2CC3CC1CC2C3` (centres undefined), the TGI with HOP-18 NSCLC, in the assay on RXF-631 renal, with DMS 114 small cell lung, in the assay on LXFL 529 NSCLC and in the assay on KM20L2 colon was greater than 100 µM in each case.

As for `COC1CC(O[C@H]2CC[C@@]3(C)C(=CCC4(O)C3CCC35C(=O)OC6(C)O[C@@]43CCC65)C2)OC(C)C1O` (some centres undefined), the TGI in the assay on HOP-18 NSCLC, with DMS 114 small cell lung, in the assay on LXFL 529 NSCLC, in the assay on KM20L2 colon and with XF 498 CNS was greater than 100 µM in each case.

For the compound `CO/S(=N/S(=O)(=O)c1ccccc1)c1ccccc1[N+](=O)[O-]` (centres undefined), the TGI in the assay with HOP-18 NSCLC, in the assay with RXF-631 renal, with LXFL 529 NSCLC, in the assay on KM20L2 colon and with XF 498 CNS was greater than 100 µM in each case.

As to `O=CC1=CCCN(CCc2c[nH]c3ccccc23)C1`, the TGI came out at 109 µM with HOP-18 NSCLC; 102 µM with RXF-631 renal; 146 µM with DMS 114 small cell lung; 45.8 µM in the assay on LXFL 529 NSCLC; 122 µM in the assay on KM20L2 colon.

On to `CSc1nc2nccnc2c(=O)[nH]1`, for which the TGI in the assay on HOP-18 NSCLC, in the assay with DMS 114 small cell lung, with LXFL 529 NSCLC, with KM20L2 colon and in the assay with XF 498 CNS was greater than 100 µM throughout.

In the case of `CC1=C(C(=O)O)N2C(=O)[C@@H](NC(=O)C(c3ccccc3)N3CSC(=S)N(C(C)C)C3)C2SC1` (some centres undefined), the TGI in the assay on HOP-18 NSCLC, in the assay on LXFL 529 NSCLC, in the assay on KM20L2 colon and in the assay with XF 498 CNS was greater than 100 µM each time.
